These are literature values, as cited in US20250224401A1, “METHODS OF DIAGNOSING B CELL MALIGNANCIES, DETECTING B CELL MALIGNANCY RELAPSE, AND TREATING THEREOF” (Rutgers, The State University of New Jersey, priority 2022, published 2025).

For this data set, the system named is cultured human malignant B cells. Conditions: in vitro.

SMILES strings stand for the structures.

For the molecule `C=CC(=O)N1CCC[C@@H](n2nc(-c3ccc(Oc4ccccc4)cc3)c3c(N)ncnc32)C1` [ibrutinib], the “cytotoxic effects on cultured human malignant B cells” value is “moderate or minimal cytotoxic effects”.
